Results published in US8178506B2, “Oligomeric compounds and compositions for use in modulation of small non-coding RNAs” (Regulus Therapeutics Inc., priority 2003, dated 2012).
In the oligonucleotide strings, read from the 5' end, every base follows the letter of its sugar. An asterisk marks phosphorothioate; unmarked linkages are phosphodiester. Other units and linkages are bracketed, terminal groups are in braces. A string of capitals states the bases alone. e = 2'-O-(2-methoxyethyl) (MOE); [5mC] = 5-methylcytosine; d = 2'-deoxy (DNA)

Legend:
Assay type in all cases: cell-based, human
PEPCK-c = PEPCK-c mRNA expression in HepG2 cells; conditions: for PEPCKc mRNA expression: Experiment 2, insulin treated: HepG2 cells transfected with oligomeric compound, 1 nM insulin for four hours, UTC + 1 nM insulin = 100
Method: (§1) Approximately 28 hours after transfection, the cells are subjected to serum starvation for a period of 12 to 16 hours, using serum-free growth medium. Following serum starvation, cells are treated with 1 nM insulin (insulin-treated) or are left untreated (basal conditions) for approximately four hours. At the same time, untreated control cells in both plates are treated with 100 nM insulin to determine the maximal insulin response. Following insulin treatment (forty-eight hours after transfection), total RNA is harvested from all samples, and the amount of total RNA from each sample is determined using a Ribogreen assay (Invitrogen Corporation, Carlsbad, Calif.). Real-time PCR is performed on the total RNA samples using primer/probe sets for three insulin responsive genes: insulin-like growth factor binding protein-1 (IGFBP-1), cytosolic PEPCK (PEPCK-C), and follistatin. Gene expression levels obtained by real-time PCR are normalized for total RNA content in the samples.
(§2) Oligomeric compounds of the present invention were tested for their effects on insulin signaling in HepG2 cells. HepG2 cells were plated at 7500 cells/well in collagen coated 96-well plates. The following day, cells were transfected with oligomeric compounds targeting miRNAs using 100 nM oligomeric compound in LIPOFECTIN™ (Invitrogen Corporation, Carlsbad, Calif.) in two 96-well plates. The oligomeric compounds were tested in triplicate on each 96-well plate, except for positive and negative controls, which were measured up to six times per plate. At the end of transfection, the transfection medium was replaced by regular growth medium. Twenty-eight hours post-transfection, the cells were subjected to overnight (sixteen to eighteen hours) serum starvation using serum free growth medium. Forty-four hours post-transfection, the cells in the transfected wells were treated with either no insulin (“basal” Experiment 1, for identification of insulin-mimetic compounds) or with 1 nM insulin (“insulin treated” Experiment 2, for identification of insulin sensitizers) for four hours. At the same time, in both plates, cells in some of the un-transfected control wells are treated with 100 nM insulin to determine maximal insulin response. At the end of the insulin or no-insulin treatment (forty-eight hours post-transfection), total RNA is isolated from both the basal and insulin treated (1 nM) 96-well plates, and the amount of total RNA from each sample is determined using a Ribogreen assay (Molecular Probes, Eugene, Oreg.). Real-time PCR is performed on all the total RNA samples using primer/probe sets for three insulin responsive genes: PEPCK-c, IGFBP-1 and follistatin. Expression levels for each gene are normalized to total RNA, and values+standard deviation are expressed relative to the transfectant only untreated control (UTC) and negative control compounds.
(§3) Protocols for treatment of HepG2 cells and transfection of oligomeric compounds are as described in Example 18. Also as described in Example 18, forty-four hours post-transfection, the cells in the transfected wells were treated with either no insulin (“basal” Experiment 3 (below), for identification of insulin-mimetic compounds) or with 1 nM insulin (“insulin treated” Experiment 4 (below), for identification of insulin sensitizers) for four hours. At the same time, in both plates, cells in some of the un-transfected control wells are treated with 100 nM insulin to determine maximal insulin response. At the end of the insulin or no-insulin treatment (forty-eight hours post-transfection), total RNA is isolated from both the basal and insulin treated (1 nM) 96-well plates, and the amount of total RNA from each sample is determined using a Ribogreen assay (Molecular Probes, Eugene, Oreg.).

follistatin = experiment: Follistatin mRNA expression in HepG2 cells; conditions: for Follistatin mRNA expression: Experiment 2, insulin treated: HepG2 cells transfected with oligomeric compound, 1 nM insulin for four hours, UTC + 1 nM insulin = 100
Method: as §1, §2, §3

IGFBP-1 = IGFBP-1 mRNA expression in HepG2 cells; conditions: for IGFBP1 mRNA expression: Experiment 2, insulin treated: HepG2 cells transfected with oligomeric compound, 1 nM insulin for four hours, UTC + 1 nM insulin = 100
Method: as §1, §2, §3

[1] = Experiment 3, basal (no insulin), HepG2 cells, 48 hours post-transfection
[2] = Experiment 4, insulin-sensitization: HepG2 cells treated with 1 nM insulin for four hours, 48 h post-transfection, mRNA by real-time PCR

| Substance | PEPCK-c (% UTC) (PEPCK-c; [1]) | PEPCK-c (% UTC) (PEPCK-c; [2]) | Follistatin (% UTC) (follistatin; [1]) | Follistatin (% UTC) (follistatin; [2]) | IGFBP-1 (% UTC) (IGFBP-1; [1]) | IGFBP-1 (% UTC) (IGFBP-1; [2]) | PEPCKc mRNA expression (PEPCK-c) | Follistatin mRNA expression (follistatin) | IGFBP1 mRNA expression (IGFBP-1) |
| --- | --- | --- | --- | --- | --- | --- | --- | --- | --- |
| 186515 (antisense eA*eG*eG*eT*eA*dG*d[5mC]*dT*dT*dT*dG*dA*dT*dT*dA*eT*eG*eT*eA*eA) [compound 186515] | 70 | 40 | 67 | 39 | 193 | 105 | – | – | – |
| 328343 (eT*e[5mC]*eG*eA*eT*dT*dT*dA*dG*dT*dT*dA*dT*d[5mC]*dT*eA*eA*eA*eA*eA) [compound 328343] | – | – | – | – | – | – | 69 | 139 | 135 |
| 328358 (eA*eG*eT*eT*eT*dG*dA*dA*dG*dT*dG*dT*d[5mC]*dA*d[5mC]*eA*eG*e[5mC]*eG*e[5mC]) [compound 328358] | – | – | – | – | – | – | 93 | 106 | 165 |
| 328367 (eA*e[5mC]*eT*eG*eA*dG*dG*dG*d[5mC]*dG*dG*d[5mC]*d[5mC]*d[5mC]*dG*eG*eG*e[5mC]*eA*eG) [compound 328367] | – | – | – | – | – | – | 85 | 107 | 141 |
| 328702 (eT*eG*eA*e[5mC]*e[5mC]*dA*d[5mC]*dA*dA*dA*dA*dT*dT*d[5mC]*d[5mC]*eT*eT*eA*e[5mC]*eA; antisense) [compound 328702] | – | – | – | – | – | – | 96 | 88 | 83 |
| 328761 (antisense eG*e[5mC]*eA*eG*eG*d[5mC]*dT*dA*dA*dA*dA*dG*dA*dA*dA*eT*eA*eA*eG*e[5mC]) [compound 328761] | 48 | 55 | 91 | 98 | 118 | 93 | 64 | 53 | 193 |
| 328764 (antisense eA*eG*eA*eT*eG*dT*dT*dT*d[5mC]*dT*dG*dG*d[5mC]*d[5mC]*dT*eG*e[5mC]*eG*eA*eG) [compound 328764] | – | – | – | – | – | – | 68 | 128 | 145 |
| 328765 (antisense eG*eA*e[5mC]*eA*eA*dA*d[5mC]*dT*d[5mC]*dA*dG*d[5mC]*dT*dA*dT*eA*eT*eT*eG*eT) [compound 328765] | 93 | 73 | 87 | 97 | 88 | 94 | – | – | – |
| 328769 (antisense eA*eG*eG*e[5mC]*eT*dG*dG*dA*d[5mC]*dA*dG*d[5mC]*dA*d[5mC]*dA*e[5mC]*eA*eA*e[5mC]*e[5mC]) [compound 328769] | – | – | – | – | – | – | 100 | 84 | 110 |
| 328774 (antisense eG*e[5mC]*eA*e[5mC]*e[5mC]*d[5mC]*dG*d[5mC]*d[5mC]*dT*d[5mC]*dA*d[5mC]*dA*d[5mC]*eA*e[5mC]*eG*eT*eG) [compound 328774] | – | – | – | – | – | – | 77 | 68 | 100 |
